SMILES strings stand for the structures. pKi: −log10 of the molar value.

One series has as its target human 5-HT2A receptor (Homo sapiens (Human), UniProt P28223). Description: Radioligand binding ([3H]-ketanserin) to cloned receptors expressed in HEK-293 EBNA cells. The settings on record: HEK293 EBNA cell membranes expressing human 5-HT2A. The essentials: (§1)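 Membranes from transiently transfected HEK293 EBNA cells incubated 1 h at RT with ten compound concentrations (10 μM–0.1 nM). D2/D3: [3H]-spiperone ~0.7/0.5 nM, Tris–NaCl–Mg/Ca buffer pH 7.4; 5-HT2A: [3H]-ketanserin 1.1 nM, Tris–MgCl2–EGTA pH 7.4.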

The target in a further series is human D2 receptor (Homo sapiens (Human), UniProt P14416). Description: Radioligand binding ([3H]-spiperone) to cloned receptors expressed in HEK-293 EBNA cells. The settings on record: HEK293 EBNA cell membranes expressing human D2. The essentials: as §1
A further series deals with human D3 receptor (Homo sapiens (Human), UniProt P35462). The series is described as above. The settings on record: HEK293 EBNA cell membranes expressing human D3. The essentials:
as §1

Chain of human D3 receptor (P35462 whole entry): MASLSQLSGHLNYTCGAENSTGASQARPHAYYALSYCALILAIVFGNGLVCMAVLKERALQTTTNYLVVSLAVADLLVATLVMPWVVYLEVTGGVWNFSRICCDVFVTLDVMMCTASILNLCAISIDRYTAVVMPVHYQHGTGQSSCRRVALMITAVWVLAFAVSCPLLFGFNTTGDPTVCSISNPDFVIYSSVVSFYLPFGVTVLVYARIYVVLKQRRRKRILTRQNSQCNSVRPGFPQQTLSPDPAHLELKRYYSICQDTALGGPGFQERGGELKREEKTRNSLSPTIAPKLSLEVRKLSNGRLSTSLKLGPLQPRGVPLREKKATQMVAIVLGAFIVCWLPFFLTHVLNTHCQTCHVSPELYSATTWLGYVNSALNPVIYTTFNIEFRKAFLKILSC
Chain of human D2 receptor (P14416 whole entry): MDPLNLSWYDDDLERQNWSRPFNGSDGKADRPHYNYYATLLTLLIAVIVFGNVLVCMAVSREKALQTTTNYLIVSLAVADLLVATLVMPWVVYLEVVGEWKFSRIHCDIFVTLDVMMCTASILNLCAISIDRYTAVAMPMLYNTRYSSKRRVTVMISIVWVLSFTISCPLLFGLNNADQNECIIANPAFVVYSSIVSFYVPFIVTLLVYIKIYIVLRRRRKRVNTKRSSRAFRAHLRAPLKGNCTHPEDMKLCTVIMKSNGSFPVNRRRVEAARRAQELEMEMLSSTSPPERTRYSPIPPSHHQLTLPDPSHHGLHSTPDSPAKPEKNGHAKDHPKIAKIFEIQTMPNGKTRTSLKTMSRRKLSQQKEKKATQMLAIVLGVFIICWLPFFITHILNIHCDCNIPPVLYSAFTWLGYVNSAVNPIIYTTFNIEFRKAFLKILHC
Chain of human 5-HT2A receptor (P28223 whole entry): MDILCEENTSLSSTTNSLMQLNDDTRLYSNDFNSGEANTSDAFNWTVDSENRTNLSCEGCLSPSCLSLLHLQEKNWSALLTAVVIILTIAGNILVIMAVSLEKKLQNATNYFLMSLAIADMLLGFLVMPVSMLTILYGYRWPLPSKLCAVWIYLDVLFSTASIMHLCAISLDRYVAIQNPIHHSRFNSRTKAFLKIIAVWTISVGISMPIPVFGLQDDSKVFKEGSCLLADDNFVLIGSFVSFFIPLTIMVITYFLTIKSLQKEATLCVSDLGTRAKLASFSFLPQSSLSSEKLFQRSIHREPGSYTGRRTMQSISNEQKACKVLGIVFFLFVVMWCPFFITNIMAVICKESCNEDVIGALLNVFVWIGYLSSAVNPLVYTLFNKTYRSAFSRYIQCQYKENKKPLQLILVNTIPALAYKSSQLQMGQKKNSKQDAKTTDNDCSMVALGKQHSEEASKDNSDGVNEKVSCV

As a reminder, the pKi is −log10 of the Ki, conventionally taken in molar units. As usually defined, the melting point is the temperature, or range, at which the solid turns liquid. As to `O=C(CC1CC1)N[C@H]1CC[C@H](CCN2CCC(c3cccc4c3CCO4)CC2)CC1` [Example 30, trans-2-Cyclopropyl-N-(4-{2-[4-(2,3-dihydro-benzofuran-4-yl)-piperidin-1-yl]-ethyl}-cyclohexyl)-acetamide], the melting point is 189 °C. For the same molecule, on human 5-HT2A receptor, the pKi was 7.54. The negative logarithm of the Ki (pKi) on human D2 receptor is 6.57. For the same molecule, the pKi on human D3 receptor is 8.54.
Molecule `O=C(N[C@H]1CC[C@H](CCN2CCC(c3cccc4c3CCO4)CC2)CC1)c1ccc(N2CCOCC2)cc1` [Example 33, trans-N-(4-{2-[4-(2,3-Dihydro-benzofuran-4-yl)-piperidin-1-yl]-ethyl}-cyclohexyl)-4-morpholin-4-yl-benzamide] gave a melting point of 247 °C. On human 5-HT2A receptor, the pKi was 7.75. Besides, the pKi at human D2 receptor was 6.89. Also, at human D3 receptor, the pKi was 7.98.
For `O=C(N[C@H]1CC[C@H](CCN2CCC(c3cccc4c3CCO4)CC2)CC1)c1ccc(Cl)cc1` [Example 34, trans-4-Chloro-N-(4-{2-[4-(2,3-dihydro-benzofuran-4-yl)-piperidin-1-yl]-ethyl}-cyclohexyl)-benzamide], in that order: 224 °C, 7.74, 7.14 and 8.31.
The corresponding values for `O=C(N[C@H]1CC[C@H](CCN2CCC(c3cccc4c3CCO4)CC2)CC1)c1ccc(F)cc1` [Example 35, trans-N-(4-{2-[4-(2,3-Dihydro-benzofuran-4-yl)-piperidin-1-yl]-ethyl}-cyclohexyl)-4-fluoro-benzamide] are 213 °C, 7.85, 7.13 and 8.31.
The corresponding values for `O=C(C[C@@H](O)C(F)(F)F)N[C@H]1CC[C@H](CCN2CCC(c3cccc4c3CCO4)CC2)CC1` [Example 36, trans-(R)—N-(4-{2-[4-(2,3-Dihydro-benzofuran-4-yl)-piperidin-1-yl]-ethyl}-cyclohexyl)-4,4,4-trifluoro-3-hydroxy-butyramide] are 189 °C, 7.27, 6.62 and 8.19.
`CC(C)(O)C(=O)N[C@H]1CC[C@H](CCN2CCC(c3cccc4c3CCO4)CC2)CC1` [Example 38, trans-N-(4-{2-[4-(2,3-Dihydro-benzofuran-4-yl)-piperidin-1-yl]-ethyl}-cyclohexyl)-2-hydroxy-2-methyl-propionamide] had a melting point of 163 °C. On human 5-HT2A receptor, the pKi is 8.10. Further, the pKi at human D2 receptor is 6.31. The pKi at human D3 receptor is 7.46.
On to `O=C(N[C@H]1CC[C@H](CCN2CCC(c3cccc4c3CCO4)CC2)CC1)c1ccnc2ccccc12` [Example 40, Quinoline-4-carboxylic acid trans-(4-{2-[4-(2,3-dihydro-benzofuran-4-yl)-piperidin-1-yl]-ethyl}-cyclohexyl)-amide], for which the melting point is 211 °C. Further, on human 5-HT2A receptor, the pKi is 7.62. Also, the pKi on human D2 receptor is 6.25. The pKi on human D3 receptor is 8.21.
The corresponding values for `Cc1cc(C(=O)N[C@H]2CC[C@H](CCN3CCC(c4cccc5c4CCO5)CC3)CC2)on1` [Example 41, 3-Methyl-isoxazole-5-carboxylic acid trans-(4-{2-[4-(2,3-dihydro-benzofuran-4-yl)-piperidin-1-yl]-ethyl}-cyclohexyl)-amide] are 215 °C, 7.44, 6.91 and 7.97.
`Cc1ccc(C(=O)N[C@H]2CC[C@H](CCN3CCC(c4cccc5c4CCO5)CC3)CC2)cn1` [Example 42, trans-N-(4-{2-[4-(2,3-Dihydro-benzofuran-4-yl)-piperidin-1-yl]-ethyl}-cyclohexyl)-6-methyl-nicotinamide] showed a melting point of 202 °C. Also, on human 5-HT2A receptor, the pKi was 7.60. For the same molecule, the negative logarithm of the Ki (pKi) on human D2 receptor was 6.82. For the same molecule, the pKi on human D3 receptor is 7.99.
In the case of `O=C(N[C@H]1CC[C@H](CCN2CCC(c3cccc4c3CCO4)CC2)CC1)C(F)(F)F` [Example 43, trans-N-(4-{2-[4-(2,3-Dihydro-benzofuran-4-yl)-piperidin-1-yl]-ethyl}-cyclohexyl)-2,2,2-trifluoro-acetamide], the melting point turned out to be 173 °C. Also, on human 5-HT2A receptor, the pKi was 7.26. For the same molecule, the pKi on human D2 receptor is 6.54. The negative logarithm of the Ki (pKi) at human D3 receptor was 7.66.
`CN1CCN(c2ccc(C(=O)N[C@H]3CC[C@H](CCN4CCC(c5cccc6c5CCO6)CC4)CC3)cc2)CC1` [Example 44, trans-N-(4-{2-[4-(2,3-Dihydro-benzofuran-4-yl)-piperidin-1-yl]-ethyl}-cyclohexyl)-4-(4-methyl-piperazin-1-yl)-benzamide]: the melting point stood at 241 °C. For the same molecule, the negative logarithm of the Ki (pKi) on human 5-HT2A receptor was 8.08. The pKi at human D2 receptor is 6.83. In addition, the pKi on human D3 receptor was 8.22.
For `N#Cc1ccc(C(=O)N[C@H]2CC[C@H](CCN3CCC(c4cccc5c4CCO5)CC3)CC2)cc1` [Example 45, trans-4-Cyano-N-(4-{2-[4-(2,3-dihydro-benzofuran-4-yl)-piperidin-1-yl]-ethyl}-cyclohexyl)-benzamide], in that order: 230 °C, 7.65, 6.72 and 8.10.
The corresponding values for `O=C(N[C@H]1CC[C@H](CCN2CCC(c3cccc4c3CCO4)CC2)CC1)c1ccc(N2CCOCC2)nc1` [Example 46, trans-N-(4-{2-[4-(2,3-Dihydro-benzofuran-4-yl)-piperidin-1-yl]-ethyl}-cyclohexyl)-6-morpholin-4-yl-nicotinamide] are 228 °C, 7.56, 6.04 and 7.79.
For `CS(=O)(=O)N[C@H]1CC[C@H](CCN2CCC(c3cccc4c3CCO4)CC2)CC1` [Example 47, trans-N-(4-{2-[4-(2,3-Dihydro-benzofuran-4-yl)-piperidin-1-yl]-ethyl}-cyclohexyl)-methanesulfonamide], in that order: 152 °C, 7.45, 6.48 and 8.00.
`CCS(=O)(=O)N[C@H]1CC[C@H](CCN2CCC(c3cccc4c3CCO4)CC2)CC1` [Example 48, Ethanesulfonic acid trans-(4-{2-[4-(2,3-dihydro-benzofuran-4-yl)-piperidin-1-yl]-ethyl}-cyclohexyl)-amide] registered a melting point of 131 °C. In addition, at human 5-HT2A receptor, the pKi is 7.46. For the same molecule, the negative logarithm of the Ki (pKi) on human D2 receptor is 6.48. Also, the pKi at human D3 receptor is 7.95.
For `O=S(=O)(N[C@H]1CC[C@H](CCN2CCC(c3cccc4c3CCO4)CC2)CC1)c1ccccc1` [Example 49, trans-N-(4-{2-[4-(2,3-Dihydro-benzofuran-4-yl)-piperidin-1-yl]-ethyl}-cyclohexyl)-benzenesulfonamide], in that order: 130 °C, 7.10, 6.86 and 8.29.
Regarding `O=S(=O)(N[C@H]1CC[C@H](CCN2CCC(c3cccc4c3CCO4)CC2)CC1)c1ccc(F)cc1` [Example 50, trans-N-(4-{2-[4-(2,3-Dihydro-benzofuran-4-yl)-piperidin-1-yl]-ethyl}-cyclohexyl)-4-fluoro-benzenesulfonamide], the melting point was 134 °C. Further, the negative-log Ki (pKi) at human 5-HT2A receptor was 7.06. At human D2 receptor, the negative logarithm of the Ki (pKi) was 6.98. In addition, the pKi at human D3 receptor is 8.39.
For `CN(C)S(=O)(=O)N[C@H]1CC[C@H](CCN2CCC(c3cccc4c3CCO4)CC2)CC1` [Example 51, N′-(trans-4-{2-[4-(2,3-Dihydro-benzofuran-4-yl)-piperidin-1-yl]-ethyl}-cyclohexyl)-N,N-dimethylsulfamide], in that order: 122 °C, 7.71, 6.60 and 8.00.
For `N#CCC(=O)N[C@H]1CC[C@H](CCN2CCC(c3cccc4c3CCO4)CC2)CC1` [Example 55, trans-2-Cyano-N-(4-{2-[4-(2,3-dihydro-benzofuran-4-yl)-piperidin-1-yl]-ethyl}-cyclohexyl)-acetamide], in that order: 194 °C, 7.41, 6.86 and 8.44.
For `O=C(N[C@H]1CC[C@H](CCN2CCC(c3cccc4c3CCO4)CC2)CC1)c1ccc(N2CCCCC2)cc1` [Example 56, trans-N-(4-{2-[4-(2,3-Dihydro-benzofuran-4-yl)-piperidin-1-yl]-ethyl}-cyclohexyl)-4-piperidin-1-yl-benzamide], in that order: 248 °C, 6.86, 5.64 and 7.14.
In turn, `O=C(N[C@H]1CC[C@H](CCN2CCC(c3cccc4c3CCO4)CC2)CC1)c1ccc(C(F)(F)F)cc1` [Example 57, trans-N-(4-{2-[4-(2,3-Dihydro-benzofuran-4-yl)-piperidin-1-yl]-ethyl}-cyclohexyl)-4-trifluoromethyl-benzamide] had a melting point of 228 °C. In addition, at human 5-HT2A receptor, the negative-log Ki (pKi) was 6.87. The negative-log Ki (pKi) on human D2 receptor is 5.84. In addition, the pKi at human D3 receptor was 7.18.
The corresponding values for `CC(C)(C)C(=O)N[C@H]1CC[C@H](CCN2CCC(c3cccc4c3CCO4)CC2)CC1` [Example 58, trans-N-(4-{2-[4-(2,3-Dihydro-benzofuran-4-yl)-piperidin-1-yl]ethyl}-cyclohexyl)-2,2-dimethyl-propionamide] are 192 °C, 7.30, 6.42 and 7.19.

The values above are taken from patent US8877778B2, “Benzofurane compounds” (Hoffmann-La Roche Inc., priority 2010, dated 2014).
